As a reminder, the EC50 is the concentration that produces a half-maximal response.

Data on 20 molecules can be found in US12454529B2, “Piperazine cyclic ureas” (SIRONAX LTD., priority 2020, dated 2025).

The subject of one experiment is HT-29 cells. Nature of the experiment: HT-29 cell necrosis/necroptosis inhibition (TNF-α + SMAC mimetic + zVAD-FMK; CellTiter-Glo cell viability). The format is cell-based. As to conditions: Homo sapiens, HT-29, 20 h, read-out: EC50 (Cell activity; Necrosis/Necroptosis Inhibitory Activity, Compounds 1-142). In short, it runs like this: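 Necroptosis was driven by TNF-α 10 ng/ml plus SMAC mimetic 6 μM and zVAD-FMK 10 μM in serum-free medium, with compounds as a 10-point threefold titration. After 20 h at 37 °C, ATP-based luminescence was read; EC50 values are geometric means of duplicate curves.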
For orientation: In ATP-based viability assays light output follows the ATP content of the culture.
For `CCn1nc(C)c(-c2nc(N3CCN(C(=O)N4N=CC[C@H]4c4cc(F)cc(F)c4)CC3)ncc2F)c1C` [Compound 117, (S)-(5-(3,5-difluorophenyl)-4,5-dihydro-1H-pyrazol-1-yl)(4-(4-(1-ethyl-3,5-dimethyl-1H-pyrazol-4-yl)-5-fluoropyrimidin-2-yl)piperazin-1-yl)methanone], the half-maximal effective concentration (EC50) was in the range of 0.1 to 100 nM.

Staying with this experiment, now noted: Homo sapiens; HT-29 cells, TNF-α 10 ng/ml + SMAC mimetic 6 μM + zVAD-FMK 10 μM, 20 hours; geometric mean, 10 points in duplicate; read-out: EC50 (Cell activity; Necrosis/Necroptosis Inhibitory Activity, Compounds 1-142).
`Cc1nnnn1-c1nc(N2CCN(C(=O)N3N=CC[C@H]3c3cc(F)cc(F)c3)CC2)ncc1F` [Compound 23, (S)-(5-(3,5-difluorophenyl)-4,5-dihydro-1H-pyrazol-1-yl)(4-(5-fluoro-4-(5-methyl-1H-tetrazol-1-yl)pyrimidin-2-yl)piperazin-1-yl)methanone]: the EC50 was in the range of 0.1 to 100 nM.
The same measure, in the same setting: the figure for `Cc1cc(-c2cc(N3CCN(C(=O)N4N=CC[C@H]4c4cc(F)cc(F)c4)CC3)ncc2F)n(C)n1` [Compound 116, (S)-(5-(3,5-difluorophenyl)-4,5-dihydro-1H-pyrazol-1-yl)(4-(4-(1,3-dimethyl-1H-pyrazol-5-yl)-5-fluoropyridin-2-yl)piperazin-1-yl)methanone] is 0.1 to 100 nM; for `N#Cc1cccc([C@@H]2CC=NN2C(=O)N2CCN(c3nccc(-c4cc[nH]n4)n3)CC2)c1` [Compound 37, (S)-3-(1-(4-(4-(1H-pyrazol-3-yl)pyrimidin-2-yl)piperazine-1-carbonyl)-4,5-dihydro-1H-pyrazol-5-yl)benzonitrile] it is 0.1 to 100 nM; for `Cc1nn(CC(N)=O)cc1-c1nc(N2CCN(C(=O)N3N=CC[C@H]3c3cc(F)cc(C#N)c3)CC2)ncc1F` [Compound 82] it is 0.1 to 100 nM.
Still for that read-out and setting: then `Cc1nnn(C)c1-c1nc(N2CCN(C(=O)N3N=CC[C@H]3c3cc(F)cc(F)c3)CC2)ncc1F` [Compound 71, (S)-(5-(3,5-difluorophenyl)-4,5-dihydro-1H-pyrazol-1-yl)(4-(4-(1,4-dimethyl-1H-1,2,3-triazol-5-yl)-5-fluoropyrimidin-2-yl)piperazin-1-yl)methanone], with 0.1 to 100 nM; and `Cc1cc(-c2nc(N3CCN(C(=O)N4N=CC[C@H]4c4cc(F)cc(F)c4)CC3)ccc2F)n(C)n1` [Compound 115, (S)-(5-(3,5-difluorophenyl)-4,5-dihydro-1H-pyrazol-1-yl)(4-(6-(1,3-dimethyl-1H-pyrazol-5-yl)-5-fluoropyridin-2-yl)piperazin-1-yl)methanone], with 0.1 to 100 nM; and `Cc1nn(CC(N)=O)c(C)c1-c1nc(N2CCN(C(=O)N3N=CC[C@H]3c3cc(F)cc(C#N)c3)CC2)ncc1F` [Compound 123, (S)-2-(4-(2-(4-(5-(3-cyano-5-fluorophenyl)-4,5-dihydro-1H-pyrazole-1-carbonyl)piperazin-1-yl)-5-fluoropyrimidin-4-yl)-3,5-dimethyl-1H-pyrazol-1-yl)acetamide], with 0.1 to 100 nM.

Staying with this experiment, now noted: Homo sapiens; HT-29 cells, TNF-α 10 ng/ml + SMAC mimetic 6 μM + zVAD-FMK 10 μM, 20 hours; geometric mean, 10 points in duplicate; read-out: EC50 (Cell activity; Necrosis/Necroptosis Inhibitory Activity, Compounds 143-323).
For `Cc1cnn(C)c1-c1cc(N2CCN(C(=O)N3N=CCC3c3cncs3)CC2)c(F)cn1` (centres unmarked) [Compound 293, (4-(2-(1,4-dimethyl-1H-pyrazol-5-yl)-5-fluoropyridin-4-yl)piperazin-1-yl)(5-(thiazol-5-yl)-4,5-dihydro-1H-pyrazol-1-yl)methanone], the EC50 fell in the range of 0.1 to 100 nM.
Still for that read-out and setting: then `O=C(N1CCN(c2ncc(F)c(-n3cnc(C(F)(F)F)n3)n2)CC1)N1N=CC[C@H]1c1cc(F)cc(F)c1` [Compound 305, (S)-(5-(3,5-difluorophenyl)-4,5-dihydro-1H-pyrazol-1-yl)(4-(5-fluoro-4-(3-(trifluoromethyl)-1H-1,2,4-triazol-1-yl)pyrimidin-2-yl)piperazin-1-yl)methanone], with 0.1 to 100 nM.
For `Cc1nc(C)n(-c2nc(N3CCN(C(=O)N4N=CCC4c4cscn4)CC3)ncc2F)n1` (centres unmarked) [Compound 212, (4-(4-(3,5-dimethyl-1H-1,2,4-triazol-1-yl)-5-fluoropyrimidin-2-yl)piperazin-1-yl)(5-(thiazol-4-yl)-4,5-dihydro-1H-pyrazol-1-yl)methanone], the EC50 was 100 to 1000 nM.
`CCn1nc(C)n(-c2nc(N3CCN(C(=O)N4N=CC[C@H]4c4cc(F)cc(C#N)c4)CC3)ncc2F)c1=O` [Compound 183, (S)-3-(1-(4-(4-(1-ethyl-3-methyl-5-oxo-1,5-dihydro-4H-1,2,4-triazol-4-yl)-5-fluoropyrimidin-2-yl)piperazine-1-carbonyl)-4,5-dihydro-1H-pyrazol-5-yl)-5-fluorobenzonitrile]: the EC50 is 0.1 to 100 nM.
`Cn1nc(C(N)=O)nc1-c1nc(N2CCN(C(=O)N3N=CCC3c3cncc(F)c3)CC2)ncc1F` (centres unmarked) [Compound 226, 5-(5-fluoro-2-(4-(5-(5-fluoropyridin-3-yl)-4,5-dihydro-1H-pyrazole-1-carbonyl)piperazin-1-yl)pyrimidin-4-yl)-1-methyl-1H-1,2,4-triazole-3-carboxamide]: the EC50 lay in the range of 0.1 to 100 nM.
Still for that read-out and setting: then `Cn1ncnc1-c1nc(N2CCN(C(=O)N3N=CC[C@H]3c3cc(F)cc(C#N)c3)CC2)ncc1Cl` [Compound 166, (S)-3-(1-(4-(5-chloro-4-(1-methyl-1H-1,2,4-triazol-5-yl)pyrimidin-2-yl)piperazine-1-carbonyl)-4,5-dihydro-1H-pyrazol-5-yl)-5-fluorobenzonitrile], with 0.1 to 100 nM; and `Cn1nc(CF)nc1-c1ccnc(N2CCN(C(=O)N3N=CC[C@H]3c3cc(F)cc(C#N)c3)CC2)n1` [Compound 169, (S)-3-fluoro-5-(1-(4-(4-(3-(fluoromethyl)-1-methyl-1H-1,2,4-triazol-5-yl)pyrimidin-2-yl)piperazine-1-carbonyl)-4,5-dihydro-1H-pyrazol-5-yl)benzonitrile], with 0.1 to 100 nM.
Still for that read-out and setting: the figure for `Cc1cc[nH]c(=O)c1-c1nc(N2CCN(C(=O)N3N=CC[C@H]3c3cc(F)cc(C#N)c3)CC2)ncc1F` [Compound 164, (S)-3-fluoro-5-(1-(4-(5-fluoro-4-(4-methyl-2-oxo-1,2-dihydropyridin-3-yl)pyrimidin-2-yl)piperazine-1-carbonyl)-4,5-dihydro-1H-pyrazol-5-yl)benzonitrile] is 0.1 to 100 nM; for `N#Cc1cc(F)cc([C@@H]2CC=NN2C(=O)N2CCN(c3ncc(F)c(-n4nccc4C(F)(F)F)n3)CC2)c1` [Compound 304, (S)-3-fluoro-5-(1-(4-(5-fluoro-4-(5-(trifluoromethyl)-1H-pyrazol-1-yl)pyrimidin-2-yl)piperazine-1-carbonyl)-4,5-dihydro-1H-pyrazol-5-yl)benzonitrile] it is 0.1 to 100 nM; for `Cc1nc(C)n(-c2ncc(F)c(N3CCN(C(=O)N4N=CC[C@H]4c4cc(F)cc(F)c4)CC3)n2)n1` [Compound 257, (S)-(5-(3,5-difluorophenyl)-4,5-dihydro-1H-pyrazol-1-yl)(4-(2-(3,5-dimethyl-1H-1,2,4-triazol-1-yl)-5-fluoropyrimidin-4-yl)piperazin-1-yl)methanone] it is 0.1 to 100 nM.
On the same count and under the same terms, the figure for `Cc1nc(CO)nn1-c1nc(N2CCN(C(=O)N3N=CC[C@H]3c3cc(F)cc(F)c3)CC2)ncc1F` [Compound 251, (S)-(5-(3,5-difluorophenyl)-4,5-dihydro-1H-pyrazol-1-yl)(4-(5-fluoro-4-(3-(hydroxymethyl)-5-methyl-1H-1,2,4-triazol-1-yl)pyrimidin-2-yl)piperazinyl)methanone] is 0.1 to 100 nM; for `Cc1csc(C2CC=NN2C(=O)N2CCN(c3ncc(F)c(-n4nc(C)nc4C)n3)CC2)n1` (centres unmarked) [Compound 215] it is 0.1 to 100 nM.
